{
  "source": "patent US20100247688A1",
  "about": "(priority 2007, published 2010)",
  "key": {"in vivo": {"assay": "in vivo", "conditions": "rat", "description": "AC-92 was prepared in DMSO and diluted in sterile phosphate buffered saline (final DMSO concentration 1.0%). […] Animals were sacrificed at 3 and 6 hours after dosing via lethal narcosis. Blood was sampled via cardiac puncture. Serum was prepared by allowing whole blood to stand at 4° C. for 60 min; plasma was prepared using heparin as the anti-coagulant. CSF was collected via the foramen magnum immediately after sacrifice. Brain material was collected by opening of the skull and simple excision of the right cortex. Samples were snap frozen using liquid nitrogen immediately after collection. All procedures were conducted in conformity with applicable German and EU laws on animal experimentation and the study was approved by a government appointed ethics committee.\nTo determine the extent of central exposure, bioavailability studies were undertaken."}, "hAPP Tg mice (APP751S/L)": {"tested_on": "hAPP Tg mice (APP751S/L)", "assay": "Morris Water Maze in hAPP Tg mice", "assay_type": "in vivo, mouse", "conditions": "for performance in Morris Water Maze: other concentration of AC-91 (not 1 or 20 mg/kg) or Compounds B; for probe trial: crossings over the former target position: 1 mg/kg, versus Tween 80 vehicle group", "description": "Therefore, mice were treated for 33 days and in the end of the treatment period behavior was evaluated in the Morris Water Maze and additionally a Object Recognition Task.\nFemale Tg and nTg mice with a C57BL/6×DBA background and an age of 7 months (±2 week) were randomly assigned to treatment groups 1 to 9 (n=20 for groups 3 to 7, n=15 for groups 1, 2, 8 and 9). […] All animals which were used for the present study had dark eyes and were likely to perceive the landmarks outside the MWM pool. However, it had to be excluded that seeing abilities of an animal were poor, which was controlled in the visible platform training, the so called pretest, before treatment start for all animals including reserves enclosed to the study. In case a seeing handicap for a specific animal would have been affirmed, the mouse would have been excluded from the study.\nCompounds or vehicle were administered via oral gavage in a daily volume of 10 ml/kg/b.w. for 33 days.\nThe Morris Water Maze task was conducted in a black circular pool of a diameter of 100 cm. Tap water was filled in with a temperature of 22±1° C. and the pool was virtually divided into four sectors. A transparent platform (8 cm diameter) was placed about 0.5 cm beneath the water surface. During the whole test session, except the pretest, the platform was located in the southwest quadrant of the pool.\nOne day before the 4 days lasting training session animals had to perform a so called “pre-test” (two 60 sec lasting trials) to ensure that the seeing abilities of each animal were normal. Only animals that fulfilled this task were enclosed to the MWM testing.\nIn the MWM task, each mouse had to perform three trials on four consecutive days. A single trial lasted for a maximum of one minute. During this time, the mouse had the chance to find the hidden, diaphanous target. If the animal could not find a “way” out of the water, the investigator guided to or placed the mouse on the platform. After each trial mice were allowed to rest on the platform for 10-15 sec.\nDuring this time, the mice had the possibility to orientate in the surrounding. Investigations took place under dimmed light conditions, to prevent the tracking system from negative influences (Kaminski; PCS, Biomedical Research Systems). On the walls surrounding the pool, posters with black, bold geometric symbols (e.g. a circle and a square) were fixed which the mice could use the symbols as landmarks for their orientation.\nOne swimming group per trial consisted of five to six mice, so that an intertrial time of about five to ten minutes was ensured. For the quantification of escape latency (the time [second]−the mouse needed to find the hidden platform and therefore to escape from the water), of pathway (the length of the trajectory [meter] to reach the target) and of the abidance in the goal quadrant a computerized tracking system was used. The computer was connected to a camera placed above the centre of the pool. The camera detected the signal of the light emitting diode (LED), which was fixed with a little hairgrip on the mouse's tail.\nTwenty-four hours after the last trial on day 4 the mice had to fulfil a so-called probe trial. At this time, the platform was removed from the pool and during the one-minute probe trial; the experimenter counted the number of crossings over the former target position. Additionally the abidance in this quadrant as well as the three other quadrants was calculated. Through out this trial a mouse could not get any, howsoever natured, clue from the platform."}, "[1]": {"assay": "ACI-91 and ACI-92 levels in plasma, CSF and brain homogenates of transgenic mice", "assay_type": "in vivo, mouse", "conditions": "for concentration in brain as % of plasma concentration / Kp at 33 days: 100 mg/kg ACI-91 or 50 mg/kg ACI-92, 33 days; for Kp at 33 days: mouse, brain homogenate, oral, read-out: concentration in brain as % of plasma concentration", "description": "Determination of ACI-91 and ACI-92 in mouse plasma, CSF and brain homogenate samples was done by HPLC-MS/MS by Quality Assistance SA, Technoparc de Thudinie 2, B-6536 Donstiennes, Belgium.\nThe amounts of ACI-91 and of ACI-92 in plasma, CSF and in brain homogenates is determined after treatment of hAPP single transgenic mice (JSW, Graz) and hAPP-PS1 double-transgenic mice (Synovo, Tübingen), respectively, for 33 days with doses of 1, 5, 20 and 100 mg/kg of ACI-91 and 50 mg/kg ACI-92 and doses of 100 mg/kg of ACI-91 and 50 mg/kg ACI-92, respectively."}, "APPPS1 transgenic mice": {"tested_on": "APPPS1 transgenic mice", "assay": "Plaque load, plaque volume and area in APPPS1 transgenic model for cerebral amyloidosis", "assay_type": "in vivo, mouse", "conditions": "for increase of amyloid load as % of that expected with normal progression of the model: AC-92 after 3 months, AC-91 at month 5; for plaque volume and area smaller than vehicle-treated controls: APPPS1 mice", "description": "The transgenic model and corresponding […] analysis of brain sections was provided by Prof. Mathias Jucker, Department of Cellular Neurology, Hertie-Institute for Clinical Brain Research University of Tübingen, Otfried-Müller Strasse 27, D-72076 Tübingen, Germany. APPPS1 transgenic mice express both KM670/671NL mutated human APP and L166P mutated human PS1 under the Thy-1 promoter element (Radde et al., 2005). They were treated with the compounds from the age of 126 days after birth (DAB) to 158 DAB. […] On completion of the dosing period, animals were sacrificed by lethal narcosis followed by collection of blood by cardiac puncture and recovery of brain material for sectioning and extraction of drug and relevant peptides. […] Brains were removed and postfixed at 4° C. in 4% PFA, dehydrated in 30% sucrose, and frozen. Serial coronal serial 40 μm sections were cut with a microtome and collected in cryoprotectant (30% glycerol, 45% ethylene glycol in PBS) and stored at −20° C. until use.\nFree-floating sections were processed for immunohistochemistry as described elsewhere (Stalder et al., 2005). Briefly, sections were washed in TBS and blocked with 3% goat or donkey serum (Vector Laboratories Inc., Burlingame, Calif.) in 0.3% Triton-X-100 (Fisher, Fair Lawn, N.J.). The sections were incubated overnight with primary antibodies at 4° C. in 2% serum and 0.3% Triton-X-100, washed three times with TBS and incubated for 3 hours with biotin-conjugated secondary antibodies. After repeated TBS washing, sections were stained by complexing with SG blue (Vectastain ABC elite kit; Vector Laboratories). Sections were mounted on precleaned glass microscope slides (Superfrost® Plus; Langenbrinck, Teningen, Germany), dehydrated with an alcohol series, cleared in xylene and coverslipped in a xylene soluble mounting medium (Pertex®, medite GmbH, Burgdorf, Germany). Amyloid load was estimated on every 12th section throughout the entire neocortex.\nIn vivo experiments were performed using a very aggressive double transgenic mouse model for cerebral amyloidosis (Radde et al., 2006). APPPS1 transgenic mice expressing both KM670/671NL mutated human APP and L166P mutated human PS1 under the Thy-1 promoter element (Radde et al., 2005) were treated with the compounds from the age of 126 days after birth (DAB) to 158 DAB. Mice were treated as described in A3. above. On completion of the dosing period, samples were taken from the animals and snap frozen using liquid nitrogen as reported herein previously (see Section A3. above).\nIn the model, plaque load in the brain is known to increase roughly exponentially with age (Radde et al., 2005). […] These conditions should be suitable to provide insight, whether initial formation of plaques or downstream processes reversing existing plaque loads are involved in corresponding drug effects."}, "[2]": {"assay_type": "in vivo", "conditions": "daily oral gavage, 33 days; AC-91 in four different concentrations", "quoted_text": "In total 171 female hAPP Tg and nTg mice with an age of 6.5 months at treatment start were enclosed to study."}},
  "note": "Entries after “also recorded” stand apart in the source; their conditions may differ. Read-outs that look alike come from different tables or passages of the source.",
  "data": [
    {"smiles": "O=C1Nc2cccnc2Nc2ccccc21", "note": "[AC-92, LS-75]", "values": [
      {"measurement": "Kp", "setting": "in vivo; male, Lewis, ip, 50 mg/kg", "value": "~0.25"},
      {"measurement": "concentration at 3 h", "setting": "in vivo; male, Lewis, po, 50 mg/kg", "value": "~20", "unit": "nM"},
      {"measurement": "concentration at 6 h", "setting": "in vivo; male, Lewis, po, 50 mg/kg", "value": "~75", "unit": "nM"},
      {"measurement": "enrichment in the brain", "setting": "in vivo; po", "value": "enriched in the brain to a certain extent"},
      {"measurement": "Morris Water Maze / probe trial versus Tween 80 vehicle mice", "setting": "hAPP Tg mice (APP751S/L); AC-92 treated mice", "value": "no difference to the Tween 80 mice"},
      {"measurement": "performance in Morris Water Maze", "setting": "hAPP Tg mice (APP751S/L)", "value": "weak performance similar to that observed in the historic tg group"},
      {"measurement": "concentration in brain as % of plasma concentration", "setting": "[1]; 4 months old double transgenic mice", "value": "about 5%"},
      {"measurement": "concentration in CSF as % of plasma concentration", "setting": "[1]; 4 months old double transgenic mice, listed as ACI92", "value": 20, "unit": "%"},
      {"measurement": "concentration in brain as % of plasma concentration", "setting": "[1]; 8 months old single transgenic mice", "value": 11, "unit": "%"},
      {"measurement": "Kp at 33 days", "setting": "[1]; hAPP single transgenic, 8 months old single transgenic mice", "value": "~0.11"},
      {"measurement": "Kp at 33 days", "setting": "[1]; hAPP-PS1 double-transgenic, 4 months old double transgenic mice", "value": "~0.05"},
      {"measurement": "increase of amyloid load as % of that expected with normal progression of the model", "setting": "APPPS1 transgenic mice", "value": 55, "unit": "%"},
      {"measurement": "increase of amyloid load as % of that expected with normal progression of the model", "setting": "APPPS1 transgenic mice; listed as formula III", "value": "about 60%"},
      {"measurement": "plaque volume and area smaller than vehicle-treated controls", "setting": "APPPS1 transgenic mice; month 2-3", "value": "about 26%"},
      {"measurement": "plaque volume and area smaller than vehicle-treated controls", "setting": "APPPS1 transgenic mice; month 4-5", "value": "about 26%"},
      {"measurement": "β-amyloid plaque load", "setting": "APPPS1 transgenic mice; daily p.o. 50 mg/kg AC-92 or 100 mg/kg AC-91 for one month, between months 1 and 5 after birth", "value": "substantial reductions"},
      {"measurement": "amyloid load", "setting": "APPPS1 transgenic mice; treated animals after 3 months, 50 mg/kg daily p.o.", "value": 0.61, "unit": "%"},
      {"measurement": "tolerability of the treatment", "setting": "[2]", "value": "well tolerated"}
    ]},
    {"smiles": "O=C1Nc2cccnc2N(C(=O)CN2CCNCC2)c2ccccc21", "note": "[des-methyl-AC-91]", "values": [
      {"measurement": "detection in CSF", "setting": "in vivo; po, 50 mg/kg", "value": "No AC-91 or dm-AC-91 was detected"}
    ]},
    {"smiles": "CN1CCN(CC(=O)N2c3ccccc3C(=O)Nc3cccnc32)CC1", "note": "[AC-91, pirenzepine]", "values": [
      {"measurement": "half-life", "setting": "in vivo; male, Lewis, po", "value": "~720", "unit": "min"},
      {"measurement": "escape latency in Morris Water Maze", "setting": "hAPP Tg mice (APP751S/L); 1 mg/kg daily oral, 33 days", "value": "reduced relatively to the historic group"},
      {"measurement": "probe trial: crossings over the former target position", "setting": "hAPP Tg mice (APP751S/L)", "value": "significantly (p<0.05) more often"},
      {"measurement": "probe trial: crossings over the former target position", "setting": "hAPP Tg mice (APP751S/L); listed as formula II", "value": "significantly more often"},
      {"measurement": "escape latency in Morris Water Maze", "setting": "hAPP Tg mice (APP751S/L); 20 mg/kg daily oral, 33 days", "value": "comparable escape latency to the ntg vehicle treated mice; also recorded: reduced relatively to the historic group"},
      {"measurement": "escape latency in Morris Water Maze", "setting": "hAPP Tg mice (APP751S/L); 20 mg/kg daily oral, 33 days, listed as formula II", "value": "comparable escape latency to the non transgenic vehicle treated mice"},
      {"measurement": "memory performance", "setting": "hAPP Tg mice (APP751S/L); dose escalation to 100 mg/kg", "value": "didn't improve memory performance"},
      {"measurement": "performing the Morris Water Maze task compared to the historic group", "setting": "hAPP Tg mice (APP751S/L); hAPP Tg mice, 33 days", "value": "led to an improvement"},
      {"measurement": "performance in Morris Water Maze", "setting": "hAPP Tg mice (APP751S/L)", "value": "weak performance similar to that observed in the historic tg group"}
    ]}
  ]
}
